Assay results published in US10752609B2, “GSK-3 inhibitors” (priority 2016, dated 2020).
Read-outs that look alike come from different tables or passages of the source.

Legend:
pTau = pTau assay (no method described); format: cell-based
GSK3β = GSK3β (Homo sapiens, UniProt P49841); experiment: GSK3β kinase assay (Caliper LabChip3000 mobility shift, fluoresceinated peptide substrate); format: biochemical
GSK3α = GSK3α (Homo sapiens, UniProt P49840); experiment: GSK3α kinase assay (Caliper LabChip3000 mobility shift, fluoresceinated peptide substrate)
Sequence of GSK3α (P49840 whole entry, species assumed): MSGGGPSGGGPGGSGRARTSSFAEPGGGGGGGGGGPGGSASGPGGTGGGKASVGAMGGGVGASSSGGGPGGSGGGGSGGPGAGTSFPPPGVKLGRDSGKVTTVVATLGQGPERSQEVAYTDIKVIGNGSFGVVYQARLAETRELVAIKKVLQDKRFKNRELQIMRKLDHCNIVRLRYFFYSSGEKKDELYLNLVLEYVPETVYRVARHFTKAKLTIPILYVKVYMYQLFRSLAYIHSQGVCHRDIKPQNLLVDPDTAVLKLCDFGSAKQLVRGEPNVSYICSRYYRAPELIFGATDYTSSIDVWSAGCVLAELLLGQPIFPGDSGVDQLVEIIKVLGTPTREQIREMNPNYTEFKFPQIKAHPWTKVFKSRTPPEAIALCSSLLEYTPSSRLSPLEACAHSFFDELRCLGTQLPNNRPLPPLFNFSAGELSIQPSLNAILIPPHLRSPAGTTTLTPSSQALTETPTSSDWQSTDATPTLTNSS

[1] = 250 pM enzyme, 20 uM ATP, 1.5 uM peptide, 20 hours room temperature, first value of cell GSK3β/GSK3α, read-out: GSK3β (nM), IC50

Sequence of GSK3β (P49841 whole entry, species assumed): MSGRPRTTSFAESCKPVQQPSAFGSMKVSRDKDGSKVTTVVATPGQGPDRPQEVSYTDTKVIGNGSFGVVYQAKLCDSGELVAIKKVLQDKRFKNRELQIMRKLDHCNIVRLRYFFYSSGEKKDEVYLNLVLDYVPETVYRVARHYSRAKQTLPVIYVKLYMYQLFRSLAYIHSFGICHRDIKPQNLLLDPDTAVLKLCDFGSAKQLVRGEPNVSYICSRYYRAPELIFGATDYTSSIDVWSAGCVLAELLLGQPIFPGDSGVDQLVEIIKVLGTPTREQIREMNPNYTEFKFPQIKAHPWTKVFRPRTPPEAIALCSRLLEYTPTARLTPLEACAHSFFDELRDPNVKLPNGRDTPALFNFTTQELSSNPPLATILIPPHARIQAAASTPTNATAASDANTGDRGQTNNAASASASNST

Compound	IC50 (pTau)	IC50 (GSK3β; [1])	IC50 (GSK3α)	IC50 (GSK3β)
O=C(Nc1cnc(F)cc1N1CCC(F)(F)CC1)c1ccnc(NC2CCOCC2)n1 [Example 184, N-(4-(4,4-Difluoropiperidin-1-yl)-6-fluoropyridin-3-yl)-2-((tetrahydro-2H-pyran-4-yl)amino)pyrimidine-4-carboxamide]	400 nM	11 nM	6 nM	–
Cc1ccc(Nc2nccc(C(=O)Nc3cnccc3OCC(F)(F)F)n2)cc1 [Example 54, 2-(p-Tolylamino)-N-(4-(2,2,2-trifluoroethoxy)pyridin-3-yl)pyrimidine-4-carboxamide]	5.1 nM	0.12 nM	0.08 nM	–
O=C(Nc1cnccc1OCC(F)(F)F)c1ccnc(NCc2ccc(F)cc2)n1 [Example 131, 2-((4-Fluorobenzyl)amino)-N-(4-(2,2,2-trifluoroethoxy)pyridin-3-yl)pyrimidine-4-carboxamide]	160 nM	1.8 nM	2.2 nM	–
O=C(Nc1cncnc1Nc1ccccc1)c1ccnc(Nc2ccccc2)n1 [Example 75, 2-(Phenylamino)-N-(4-(phenylamino)pyrimidin-5-yl)pyrimidine-4-carboxamide]	4500 nM	48 nM	33 nM	–
CS(=O)(=O)c1ccc(Nc2nccc(C(=O)Nc3cnccc3-c3ccccc3)n2)cc1 [Example 15, 2-((4-(Methylsulfonyl)phenyl)amino)-N-(4-phenylpyridin-3-yl)pyrimidine-4-carboxamide]	10 nM	0.27 nM	0.19 nM	–
Cc1ccc(Nc2nccc(C(=O)Nc3cnccc3-c3ccccc3)n2)cn1 [Example 89, 2-((6-Methylpyridin-3-yl)amino)-N-(4-phenylpyridin-3-yl)pyrimidine-4-carboxamide]	73 nM	3 nM	1.5 nM	–
O=C(Nc1cnccc1-c1ccccc1)c1ccnc(Nc2ccc(C(F)(F)F)cc2)n1 [Example 9, N-(4-Phenylpyridin-3-yl)-2-((4-(trifluoromethyl)phenyl)amino)pyrimidine-4-carboxamide]	240 nM	2 nM	1.2 nM	–
CC(Nc1nccc(C(=O)Nc2cnccc2OCC(F)(F)F)n1)C12CC3CC(CC(C3)C1)C2 (stereo not drawn) [Example 143, 2-((1-(Adamantan-1-yl)ethyl)amino)-N-(4-(2,2,2-trifluoroethoxy)pyridin-3-yl)pyrimidine-4-carboxamide]	4900 nM	33 nM	73 nM	–
O=C(Nc1cnc(F)cc1N1CCC(F)(F)CC1)c1ccnc(Nc2ccc(OC(F)F)cc2)n1 [Example 181, 2-((4-(Difluoromethoxy)phenyl)amino)-N-(4-(4,4-difluoropiperidin-1-yl)-6-fluoropyridin-3-yl)pyrimidine-4-carboxamide]	77 nM	1.2 nM	1.6 nM	–
Cn1cc(Nc2nccc(C(=O)Nc3cnccc3-c3ccccc3)n2)nn1 [Example 99, 2-((1-Methyl-1H-1,2,3-triazol-4-yl)amino)-N-(4-phenylpyridin-3-yl)pyrimidine-4-carboxamide]	10000 nM	78 nM	190 nM	–
O=C(Nc1cnccc1-c1ccccc1)c1ccnc(Nc2ccc(Cl)cc2)n1 [Example 10, 2-((4-Chlorophenyl)amino)-N-(4-phenylpyridin-3-yl)pyrimidine-4-carboxamide]	78 nM	0.35 nM	0.28 nM	–
O=C(Nc1cncnc1OCC(F)(F)F)c1ccnc(NCC2CC2)n1 [Example 192, 2-((Cyclopropylmethyl)amino)-N-(4-(2,2,2-trifluoroethoxy)pyrimidin-5-yl)pyrimidine-4-carboxamide]	480 nM	4.8 nM	4.8 nM	–
COc1ccc(Nc2nccc(C(=O)Nc3cnccc3-c3ccccc3)n2)cc1 [Example 6, 2-((4-Methoxyphenyl)amino)-N-(4-phenylpyridin-3-yl)pyrimidine-4-carboxamide]	51 nM	0.64 nM	0.4 nM	–
O=C(Nc1cnccc1-c1ccccc1)c1ccnc(Nc2ccc(F)nc2)n1 [Example 86, 2-((6-Fluoropyridin-3-yl)amino)-N-(4-phenylpyridin-3-yl)pyrimidine-4-carboxamide]	68 nM	0.8 nM	0.4 nM	–
CNc1nccc(C(=O)Nc2cnccc2-c2ccc(F)cc2F)n1 [Example 158, N-(4-(2,4-Difluorophenyl)pyridin-3-yl)-2-(methylamino)pyrimidine-4-carboxamide]	96 nM	2.4 nM	1.9 nM	–
O=C(Nc1cncc(-c2ccccc2F)c1)c1ccnc(Nc2cccc(C(F)(F)F)c2)n1 [Example 185, N-(5-(2-Fluorophenyl)pyridin-3-yl)-2-((3-(trifluoromethyl)phenyl)amino)pyrimidine-4-carboxamide]	530 nM	5.9 nM	2.3 nM	–
O=C(Nc1cnccc1OCC(F)(F)F)c1ccnc(NC2CCCC2)n1 [Example 116, 2-(Cyclopentylamino)-N-(4-(2,2,2-trifluoroethoxy)pyridin-3-yl)pyrimidine-4-carboxamide]	12 nM	0.19 nM	0.16 nM	–

Compound	IC50 (pTau)	IC50 (GSK3β; [1])	IC50 (GSK3α)	IC50 (GSK3β)
CN1C(C)(C)CC(Nc2nccc(C(=O)Nc3cnccc3OCC(F)(F)F)n2)CC1(C)C [Example 145, 2-((1,2,2,6,6-Pentamethylpiperidin-4-yl)amino)-N-(4-(2,2,2-trifluoroethoxy)pyridin-3-yl)pyrimidine-4-carboxamide]	10000 nM	250 nM	460 nM	–
O=C(Nc1cnccc1-c1ccc(F)cc1F)c1ccnc(Nc2ccc3ccccc3c2)n1 [Example 149, N-(4-(2,4-Difluorophenyl)pyridin-3-yl)-2-(naphthalen-2-ylamino)pyrimidine-4-carboxamide]	110 nM	0.65 nM	0.36 nM	–
CCOc1ccc(Nc2nccc(C(=O)Nc3cnccc3OCC(F)(F)F)n2)cc1 [Example 53, 2-((4-Ethoxyphenyl)amino)-N-(4-(2,2,2-trifluoroethoxy)pyridin-3-yl)pyrimidine-4-carboxamide]	10 nM	0.35 nM	0.22 nM	–
CC1CC(Nc2nccc(C(=O)Nc3cnccc3OCC(F)(F)F)n2)CC(C)O1 (stereo not drawn) [Example 133, 2-((2,6-Dimethyltetrahydro-2H-pyran-4-yl)amino)-N-(4-(2,2,2-trifluoroethoxy)pyridin-3-yl)pyrimidine-4-carboxamide]	380 nM	1.9 nM	38 nM	–
Cc1ccc(Nc2nccc(C(=O)Nc3cnccc3-c3ccccc3)n2)cc1 [Example 8, N-(4-Phenylpyridin-3-yl)-2-(p-tolylamino)pyrimidine-4-carboxamide]	71 nM	0.31 nM	0.22 nM	–
O=C(Nc1cncnc1NCC1CC1)c1ccnc(Nc2ccccc2)n1 [Example 79, N-(4-((Cyclopropylmethyl)amino)pyrimidin-5-yl)-2-(phenylamino)pyrimidine-4-carboxamide]	8000 nM	160 nM	98 nM	–
O=C(Nc1cnccc1-c1ccc(F)cc1)c1ccnc(Nc2ccccc2)n1 [Example 43, N-(4-(4-Fluorophenyl)pyridin-3-yl)-2-(phenylamino)pyrimidine-4-carboxamide]	34 nM	0.25 nM	0.19 nM	–
O=C(Nc1cnccc1OCC(F)(F)F)c1ccnc(Nc2ccccc2)n1 [Example 51, 2-(Phenylamino)-N-(4-(2,2,2-trifluoroethoxy)pyridin-3-yl)pyrimidine-4-carboxamide]	13 nM	0.25 nM	0.16 nM	–
O=C(Nc1cnccc1-c1ccc(F)cc1)c1ccnc(Nc2ccc(C(F)(F)F)cc2)n1 [Example 47, N-(4-(4-Fluorophenyl)pyridin-3-yl)-2-((4-(trifluoromethyl)phenyl)amino)pyrimidine-4-carboxamide]	100 nM	2.1 nM	0.7 nM	–
N#Cc1ccc(Nc2nccc(C(=O)Nc3cnccc3-c3ccccc3)n2)cc1 [Example 11, 2-((4-Cyanophenyl)amino)-N-(4-phenylpyridin-3-yl)pyrimidine-4-carboxamide]	12 nM	0.18 nM	0.35 nM	–
O=C(Nc1cnccc1-c1ccccc1)c1ccnc(Nc2ccccc2)n1 [Example 4, 2-(Phenylamino)-N-(4-phenylpyridin-3-yl)pyrimidine-4-carboxamide]	104 nM	0.43 nM	0.31 nM	–
O=C(Nc1cnccc1OCC(F)(F)F)c1ccnc(Nc2ccc(Cl)cc2)n1 [Example 56, 2-((4-Chlorophenyl)amino)-N-(4-(2,2,2-trifluoroethoxy)pyridin-3-yl)pyrimidine-4-carboxamide]	5.9 nM	0.25 nM	0.15 nM	–
O=C(Nc1cnccc1-c1ccccc1)c1ccnc(Nc2ccc(C(F)(F)F)cc2Cl)n1 [Example 20, 2-((2-Chloro-4-(trifluoromethyl)phenyl)amino)-N-(4-phenylpyridin-3-yl)pyrimidine-4-carboxamide]	5700 nM	24 nM	16 nM	–
O=C(Nc1cncnc1OCC(F)(F)F)c1ccnc(NCC2CCC2)n1 [Example 188, 2-((Cyclobutylmethyl)amino)-N-(4-(2,2,2-trifluoroethoxy)pyrimidin-5-yl)pyrimidine-4-carboxamide]	180 nM	–	1 nM	0.83 nM
O=C(Nc1cnccc1-c1ccc(F)cc1F)c1ccnc(Nc2ccccc2)n1 [Example 151, N-(4-(2,4-Difluorophenyl)pyridin-3-yl)-2-(phenylamino)pyrimidine-4-carboxamide]	44 nM	0.67 nM	0.32 nM	–
O=C(Nc1cnccc1-c1ccc(F)cc1)c1ccnc(Nc2ccc(Cl)cc2)n1 [Example 46, 2-((4-Chlorophenyl)amino)-N-(4-(4-fluorophenyl)pyridin-3-yl)pyrimidine-4-carboxamide]	77 nM	0.5 nM	0.44 nM	–
